Article PMC10753557, “Design and Evaluation of Synthesized Pyrrole Derivatives as Dual COX-1 and COX-2 Inhibitors Using FB-QSAR Approach” (ACS Omega, 2023)

Tests used:
COX-2 = target: T1, COX-2 (Homo sapiens, UniProt P35354); experiment: COX-2 fluorometric inhibitor screening kit (BioVision); assay type: biochemical
T1 construct: purchased BioVision
T1 sequence (P35354 18-604): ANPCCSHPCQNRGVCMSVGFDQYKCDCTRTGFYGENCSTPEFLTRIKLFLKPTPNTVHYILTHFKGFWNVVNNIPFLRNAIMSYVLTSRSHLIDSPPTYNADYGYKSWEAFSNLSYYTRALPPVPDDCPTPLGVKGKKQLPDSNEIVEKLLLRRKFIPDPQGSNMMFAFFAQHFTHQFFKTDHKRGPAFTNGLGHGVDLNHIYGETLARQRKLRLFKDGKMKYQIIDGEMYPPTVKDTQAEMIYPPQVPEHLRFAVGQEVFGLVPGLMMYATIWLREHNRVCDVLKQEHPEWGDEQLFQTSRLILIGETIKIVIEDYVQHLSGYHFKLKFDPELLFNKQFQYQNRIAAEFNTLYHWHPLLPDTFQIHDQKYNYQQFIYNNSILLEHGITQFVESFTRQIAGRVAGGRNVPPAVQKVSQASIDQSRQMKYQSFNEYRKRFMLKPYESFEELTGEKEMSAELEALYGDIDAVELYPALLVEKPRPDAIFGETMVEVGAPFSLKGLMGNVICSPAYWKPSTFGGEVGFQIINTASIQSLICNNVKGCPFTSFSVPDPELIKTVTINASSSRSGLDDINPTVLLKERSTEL
Description: (§1) To conduct the inhibition assay, the kit components were prepared as follows: The COX-1/COX-2 enzyme solutions were created by reconstituting the lyophilized powder with 110 μL of ddH2O. A diluted COX cofactor was formed by combining a COX assay buffer (398 μL) and a COX cofactor (2 μL). The arachidonic acid/NaOH solution was diluted with 5 μL of arachidonic acid, 5 μL of NaOH, and 90 μL of ddH2O. These solutions were combined to generate the reaction mixture (80 μL) for each well, consisting of the COX assay buffer (76 μL), the COX probe (1 μL), the diluted COX cofactor (2 μL), and the COX-1/COX-2 enzyme solution (1 μL). Test compounds (10 μL) were added, followed by incubation for 5–10 min at 25 °C. To […] the reaction, 10 μL of diluted arachidonic acid/NaOH solution was added. […] The assay was performed in quadruplicate with a blank and control, testing all inhibitor concentrations. The mean ± standard deviation (SD) of the percentage inhibition results were calculated, and IC50 values were determined using GraphPad PRISM software (version 5.0) by plotting the percentage inhibition against the log concentration. Additionally, the selectivity index (SI) was calculated by dividing IC50(COX-1) by IC50(COX-2).

COX-1 = target: T2, COX-1 (Ovis aries, UniProt P05979); experiment: COX-1 fluorometric inhibitor screening kit (BioVision); assay type: biochemical
T2 construct: purchased
T2 sequence (P05979 25-600): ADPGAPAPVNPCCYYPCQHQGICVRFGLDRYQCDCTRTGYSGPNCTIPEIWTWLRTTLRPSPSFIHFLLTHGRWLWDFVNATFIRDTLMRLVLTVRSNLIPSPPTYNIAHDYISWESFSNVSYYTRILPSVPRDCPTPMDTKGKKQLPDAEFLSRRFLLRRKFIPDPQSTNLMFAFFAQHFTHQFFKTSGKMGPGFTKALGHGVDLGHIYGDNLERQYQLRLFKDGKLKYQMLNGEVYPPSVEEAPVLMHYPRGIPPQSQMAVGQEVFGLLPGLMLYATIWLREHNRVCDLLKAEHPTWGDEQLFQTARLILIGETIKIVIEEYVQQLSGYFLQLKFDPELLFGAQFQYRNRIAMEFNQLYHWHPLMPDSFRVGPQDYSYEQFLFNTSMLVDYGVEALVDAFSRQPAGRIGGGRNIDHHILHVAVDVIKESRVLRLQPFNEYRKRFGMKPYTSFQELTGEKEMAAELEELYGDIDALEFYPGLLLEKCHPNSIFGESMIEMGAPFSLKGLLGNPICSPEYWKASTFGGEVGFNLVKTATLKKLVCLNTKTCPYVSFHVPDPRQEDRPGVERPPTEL
Description: as §1

[1] = 1 μM compound, mean ± SD, quadruplicate
[2] = 10 μM compound, mean ± SD, quadruplicate

| Structure (SMILES) | COX-2% Inhibition 1 μM (COX-2; [1]) | COX-2% Inhibition 10 μM (COX-2; [2]) | experimental activity on COX-2 (pIC50) (COX-2; BioVision's kit protocol) | COX subtype selectivity (COX-2; COX-1 vs COX-2, classification in conclusions) | IC50 (COX-2; fluorometric kit) | COX-1% Inhibition 1 μM (COX-1; [1]) | COX-1% Inhibition 10 μM (COX-1; [2]) | experimental activity on COX-1 (pIC50) (COX-1; BioVision's kit protocol) | IC50 (COX-1; fluorometric kit) | inhibition at 1 µM (COX-2; read-out: COX-2% Inhibition 1 μM) | inhibition at 10 µM (COX-2; read-out: COX-2% Inhibition 10 μM) |
| --- | --- | --- | --- | --- | --- | --- | --- | --- | --- | --- | --- |
| CCOC(=O)c1cc(-c2c(OC)cccc2OC)n(CC(=O)O)c1C [Compound 4g] | 83.033 ± 1.878% | 90.967 ± 2.022% | 6.7258 | nonselective inhibitors | 188 ± 8 nM | 84.517 ± 2.036% | 92.366 ± 2.731% | 6.93 | 117 ± 5 nM |  |  |
| CS(=O)(=O)Nc1ccc([N+](=O)[O-])cc1Oc1ccccc1 [nimesulide, reference compound] |  |  |  |  |  |  |  |  |  | 89.6 ± 1.05% | 97.8 ± 1.21% |
